Test results as given in patent publication US9840498B2, “Substituted quinazolin-4-one derivatives” (NOVARTIS AG, priority 2013, dated 2017).

Columns and labels:
[1] = target: human phosphoinositide-3 kinase (PI3K) alpha (Homo sapiens (Human), UniProt P42336); experiment: PI3K-mediated Akt 1/2 (S473) phosphorylation in Rat-1 cells overexpressing PI3K alpha; type: cell-based, rat cells expressing human PI3K alpha; settings: cellular assay, p-AKT(Ser473), read-out: Cell PI3K alpha IC50
Experimental: (§1) 2.1 Phosphoinositide-3 kinase (PI3K)-Mediated Akt 1/2 (S473) Phosphorylation in Rat-1 Cells
(§2) Rat-1 cells stably overexpressing a myristoylated form of the catalytic subunit of human phosphoinositide-3 kinase (PI3K) alpha, beta or delta were plated in 384-well plates at a density of 7500 (PI3K alpha), 6200 (PI3K beta), or 4000 (PI3K delta) cells in 30 ul complete growth medium (Dulbecco's modified Eagle's medium (DMEM high glucose) supplemented with 10% (v/v) fetal bovine serum, 1% (v/v) MEM non essential amino acids, 10 mM HEPES, 2 mM L-glutamine, 10 μg/mL puromycin and 1% (v/v) Penicillin/Streptomycin) and were incubated at […]/5% CO2/95% humidity for 24 h. Compounds were diluted in 384-well compound plates (compound master plates), to obtain 8-point serial dilutions for 40 test compounds in 90% DMSO, as well as 4 reference compounds plus 16 high controls and 16 low (inhibited) controls. Predilution plates were prepared by dispensing pipetting 250 nl of compound solutions into 384-well polypropylen plates (daugther plates), using a Hummingwell nanoliter dispenser. Compounds were prediluted by the addition of 49.75 ul complete growth medium. 10 ul of prediluted compound solution were transferred to the cell plate using a 384-well pipettor, resulting in a final DMSO concentration of 0.11%. Cells were incubated for 1 h at […]/5% CO2/95% humidity. The supernatant was removed, the cells were lysed in 20 ul of lysis buffer for AlphaScreen® SureFire® detection.
(§3) For detection of p-AKT(Ser473), the SureFire® p-Akt 1/2 (Ser473) Assay Kit (PerkinElmer, U.S.A.) was used. 5 ul of cell lysate was transferred to 384-well low volume Proxiplates for detection using a 384-well pipettor. Addition of AlphaScreen® SureFire® reagents was done according to the manufacturer's protocol. First, 5 ul of reaction buffer plus activation buffer mix containing AlphaScreen® acceptor beads was added, the plate was sealed, and incubated on a plate shaker for 2 hours at room temperature. Second, 2 ul of dilution buffer containing AlphaScreen® donor beads was added, and the plate was incubated on plate shaker as above for a further 2 hours. The plate was read on an AlphaScreen® compatible plate reader, using standard AlphaScreen® settings. Alternatively, p-AKT(Ser473) was detected with the CisBio HTRF Assay Kit: As positive control, 0.9 mM of 1-(3-(trifluoromethyl)-4-(piperazin-1-yl)phenyl)-8-(6-methoxypyridin-3-yl)-3-methyl-1H-imidazo[4,5-c]quinolin-2(3H)-one maleic acid salt in 90% (v/v) DMSO was added to the compound master plate. For compound testing, the cells were seeded at a density of 4000 (Rat-1_PI3Kdelta), 8000 (Rat-1_PI3Kalpha), or 6500 (Rat-1_PI3Kbeta) cells in 30 ul complete growth medium into 384-well plates, with a plastic surface promoting the adhesion of cells and their growth (assay plates) and were grown at 37° C./5% CO2/90% humidity for 24 h. Some 10 ul of the compound predilutions from the daughter plate were then transferred to the cells. After treatment with compound for 1 h, medium was removed and cells were lysed by the addition of 20 ul lysis buffer supplemented with blocking buffer. Detection of p-AKT(Ser473) was performed with the HTRF pAKT (Ser473) assay kit according to the manufacturer's instructions using 16 ul of cell lysate in a total detection volume of 20 ul.

[2] = target: human phosphoinositide-3 kinase (PI3K) delta (Homo sapiens (Human), UniProt O00329); experiment: PI3K-mediated Akt 1/2 (S473) phosphorylation in Rat-1 cells overexpressing PI3K delta; type: cell-based; settings: cellular assay, p-AKT(Ser473), read-out: Cell PI3K delta IC50
Experimental: as §1, §2, §3

Sequence of human phosphoinositide-3 kinase (PI3K) alpha (P42336 whole entry): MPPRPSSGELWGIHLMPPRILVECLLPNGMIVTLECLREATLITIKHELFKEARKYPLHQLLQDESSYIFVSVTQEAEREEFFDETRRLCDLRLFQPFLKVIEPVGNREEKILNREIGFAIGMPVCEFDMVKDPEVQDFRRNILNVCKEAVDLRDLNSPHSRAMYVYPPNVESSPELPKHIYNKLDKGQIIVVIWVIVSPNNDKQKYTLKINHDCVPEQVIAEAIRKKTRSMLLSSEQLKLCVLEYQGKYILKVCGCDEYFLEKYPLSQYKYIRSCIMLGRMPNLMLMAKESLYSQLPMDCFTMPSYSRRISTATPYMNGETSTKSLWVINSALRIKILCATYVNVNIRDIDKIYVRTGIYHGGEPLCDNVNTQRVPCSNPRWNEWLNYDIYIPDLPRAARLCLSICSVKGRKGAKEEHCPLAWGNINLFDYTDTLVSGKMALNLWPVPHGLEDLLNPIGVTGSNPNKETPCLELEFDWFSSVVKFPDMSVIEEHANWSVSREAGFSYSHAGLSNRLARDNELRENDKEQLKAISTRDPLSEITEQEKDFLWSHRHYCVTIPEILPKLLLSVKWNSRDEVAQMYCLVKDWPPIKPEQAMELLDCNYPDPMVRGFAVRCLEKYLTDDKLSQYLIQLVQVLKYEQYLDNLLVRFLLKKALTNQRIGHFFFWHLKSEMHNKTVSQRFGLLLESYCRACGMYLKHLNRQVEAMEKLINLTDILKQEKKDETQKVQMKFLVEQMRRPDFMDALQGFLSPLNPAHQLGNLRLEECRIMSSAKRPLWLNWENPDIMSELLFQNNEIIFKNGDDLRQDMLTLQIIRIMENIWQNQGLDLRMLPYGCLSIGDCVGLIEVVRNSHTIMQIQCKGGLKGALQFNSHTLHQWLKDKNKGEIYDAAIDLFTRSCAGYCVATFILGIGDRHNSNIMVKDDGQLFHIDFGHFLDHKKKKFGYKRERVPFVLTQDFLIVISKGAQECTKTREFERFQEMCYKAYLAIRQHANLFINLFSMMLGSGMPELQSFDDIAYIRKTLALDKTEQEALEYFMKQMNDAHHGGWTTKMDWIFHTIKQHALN
Sequence of human phosphoinositide-3 kinase (PI3K) alpha (Q63787 whole entry partner): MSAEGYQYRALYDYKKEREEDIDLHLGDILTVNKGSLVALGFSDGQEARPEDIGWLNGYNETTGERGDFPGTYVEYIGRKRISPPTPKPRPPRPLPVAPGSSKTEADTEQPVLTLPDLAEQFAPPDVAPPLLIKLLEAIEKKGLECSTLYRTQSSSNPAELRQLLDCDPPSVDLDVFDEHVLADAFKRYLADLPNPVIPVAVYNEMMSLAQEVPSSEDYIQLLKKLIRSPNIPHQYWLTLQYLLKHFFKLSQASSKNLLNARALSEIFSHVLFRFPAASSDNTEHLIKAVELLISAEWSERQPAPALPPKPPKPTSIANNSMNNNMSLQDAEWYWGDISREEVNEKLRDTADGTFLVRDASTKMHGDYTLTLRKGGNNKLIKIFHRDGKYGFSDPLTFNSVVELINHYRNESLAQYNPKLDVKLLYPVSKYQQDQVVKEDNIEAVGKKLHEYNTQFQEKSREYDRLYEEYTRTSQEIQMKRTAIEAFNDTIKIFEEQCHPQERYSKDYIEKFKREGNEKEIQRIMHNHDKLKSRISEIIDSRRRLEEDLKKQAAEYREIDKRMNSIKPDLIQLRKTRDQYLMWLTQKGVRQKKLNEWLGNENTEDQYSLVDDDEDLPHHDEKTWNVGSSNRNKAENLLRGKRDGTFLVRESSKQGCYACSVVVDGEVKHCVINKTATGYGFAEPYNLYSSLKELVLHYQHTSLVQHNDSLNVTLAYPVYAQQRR
Sequence of human phosphoinositide-3 kinase (PI3K) delta (O00329 whole entry): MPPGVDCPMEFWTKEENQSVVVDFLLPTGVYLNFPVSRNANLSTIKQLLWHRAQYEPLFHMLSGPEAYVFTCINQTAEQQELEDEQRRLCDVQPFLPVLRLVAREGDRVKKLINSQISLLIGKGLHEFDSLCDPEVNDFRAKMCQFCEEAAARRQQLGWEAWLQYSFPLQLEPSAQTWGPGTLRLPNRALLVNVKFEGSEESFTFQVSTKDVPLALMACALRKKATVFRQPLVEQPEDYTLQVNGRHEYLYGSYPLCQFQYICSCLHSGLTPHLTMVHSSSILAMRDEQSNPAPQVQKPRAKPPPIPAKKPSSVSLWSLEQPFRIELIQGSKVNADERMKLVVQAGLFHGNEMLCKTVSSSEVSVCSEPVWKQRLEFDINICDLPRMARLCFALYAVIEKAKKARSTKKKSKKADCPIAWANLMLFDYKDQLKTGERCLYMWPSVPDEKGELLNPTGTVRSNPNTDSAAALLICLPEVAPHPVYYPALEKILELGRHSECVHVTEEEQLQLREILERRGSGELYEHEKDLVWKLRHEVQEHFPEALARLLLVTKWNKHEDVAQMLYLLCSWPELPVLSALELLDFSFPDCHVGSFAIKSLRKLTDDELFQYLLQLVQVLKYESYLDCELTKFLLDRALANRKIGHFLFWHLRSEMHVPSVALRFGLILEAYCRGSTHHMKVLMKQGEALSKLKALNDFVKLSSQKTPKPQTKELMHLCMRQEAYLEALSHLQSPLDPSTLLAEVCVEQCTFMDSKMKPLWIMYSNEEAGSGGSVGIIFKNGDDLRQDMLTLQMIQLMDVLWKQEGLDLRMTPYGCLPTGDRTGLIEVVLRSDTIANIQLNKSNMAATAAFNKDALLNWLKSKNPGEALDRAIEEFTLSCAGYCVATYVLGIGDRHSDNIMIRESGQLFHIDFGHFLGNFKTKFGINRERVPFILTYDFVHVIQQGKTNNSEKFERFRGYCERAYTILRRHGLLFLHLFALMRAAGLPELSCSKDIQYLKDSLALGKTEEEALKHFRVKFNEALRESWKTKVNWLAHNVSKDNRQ
Sequence of human phosphoinositide-3 kinase (PI3K) delta (Q63787 whole entry partner): as the sequence (Q63787 whole entry partner) above

SMILES | IC50 [1] | IC50 [2]
Cc1nc(N)nc(N2C[C@@H](F)C[C@H]2c2nc3cccc(-c4cnn(C)c4)c3c(=O)n2-c2ccccc2)c1C#N [Example 30, 2-Amino-4-((2S,4S)-4-fluoro-2-(5-(1-methyl-1H-pyrazol-4-yl)-4-oxo-3-phenyl-3,4-dihydroquinazolin-2-yl)pyrrolidin-1-yl)-6-methylpyrimidine-5-carbonitrile] | 2300 nM | < 10 nM
CCOc1ncc(-c2cccc3nc([C@@H]4CCCN4c4nc(N)nc(C)c4C#N)n(-c4ccccc4)c(=O)c23)cn1 [Example 32, (S)-2-Amino-4-(2-(5-(2-ethoxypyrimidin-5-yl)-4-oxo-3-phenyl-3,4-dihydroquinazolin-2-yl)pyrrolidin-1-yl)-6-methylpyrimidine-5-carbonitrile] | 2400 nM | < 3 nM
COc1ncc(-c2c(F)ccc3nc([C@@H]4C[C@H](O)CN4c4nc(N)nc(C)c4C#N)n(-c4ccccc4)c(=O)c23)cn1 [Example 7, 2-Amino-4-((2S,4S)-2-(6-fluoro-5-(2-methoxypyrimidin-5-yl)-4-oxo-3-phenyl-3,4-dihydroquinazolin-2-yl)-4-hydroxypyrrolidin-1-yl)-6-methylpyrimidine-5-carbonitrile] | 4700 nM | 9 nM
Cc1nc(N)nc(N2CCC[C@H]2c2nc3ccc(F)c(-c4cnn(C)c4)c3c(=O)n2-c2ccccc2)c1C#N [Example 6, (S)-2-Amino-4-(2-(6-fluoro-5-(1-methyl-1H-pyrazol-4-yl)-4-oxo-3-phenyl-3,4-dihydroquinazolin-2-yl)pyrrolidin-1-yl)-6-methylpyrimidine-5-carbonitrile] | 1400 nM | 5 nM
COc1cncc(-c2cccc3nc([C@@H]4C[C@H](O)CN4c4nc(N)nc(C)c4C#N)n(-c4ccccc4)c(=O)c23)c1 [Example 25, 2-Amino-4-((2S,4S)-4-hydroxy-2-(5-(5-methoxypyridin-3-yl)-4-oxo-3-phenyl-3,4-dihydroquinazolin-2-yl)pyrrolidin-1-yl)-6-methylpyrimidine-5-carbonitrile] | 1900 nM | 4 nM
COc1ncc(-c2cccc3nc([C@@H]4C[C@H](O)CN4c4nc(N)nc(C)c4C#N)n(-c4ccccc4)c(=O)c23)cn1 [Example 22, 2-Amino-4-((2S,4S)-4-hydroxy-2-(5-(2-methoxypyrimidin-5-yl)-4-oxo-3-phenyl-3,4-dihydroquinazolin-2-yl)pyrrolidin-1-yl)-6-methylpyrimidine-5-carbonitrile] | > 10000 nM | 7 nM
COc1ncc(-c2cccc3nc([C@@H]4CCCN4c4ncnc(N)c4C#N)n(-c4ccccc4)c(=O)c23)cn1 [Example 3, (S)-4-Amino-6-(2-(5-(2-methoxypyrimidin-5-yl)-4-oxo-3-phenyl-3,4-dihydroquinazolin-2-yl)pyrrolidin-1-yl)pyrimidine-5-carbonitrile] | 6800 nM | 11 nM
Cc1ccccc1-n1c([C@@H]2CCCN2c2ncnc(N)c2C#N)nc2cccc(-c3cnn(C)c3)c2c1=O [Example 14, (S)-4-Amino-6-(2-(5-(1-methyl-1H-pyrazol-4-yl)-4-oxo-3-(otolyl)-3,4-dihydroquinazolin-2-yl)pyrrolidin-1-yl)pyrimidine-5-carbonitrile] | 3300 nM | 8 nM
Cc1nc(N)nc(N2CCC[C@H]2c2nc3cccc(-c4cnn(C)c4)c3c(=O)n2-c2ccccc2)c1C#N [Example 13, (S)-2-Amino-4-methyl-6-(2-(5-(1-methyl-1H-pyrazol-4-yl)-4-oxo-3-phenyl-3,4-dihydroquinazolin-2-yl)pyrrolidin-1-yl)pyrimidine-5-carbonitrile] | 1100 nM | 12 nM
COc1ncc(-c2cccc3nc([C@@H]4C[C@H](OC)CN4c4nc(N)nc(C)c4C#N)n(-c4ccccc4)c(=O)c23)cn1 [Example 12, 2-Amino-4-((2S,4S)-4-methoxy-2-(5-(2-methoxypyrimidin-5-yl)-4-oxo-3-phenyl-3,4-dihydroquinazolin-2-yl)pyrrolidin-1-yl)-6-methylpyrimidine-5-carbonitrile] | 5900 nM | 28 nM
CCOc1ncc(-c2c(F)ccc3nc([C@@H]4C[C@H](O)CN4c4nc(N)nc(C)c4C#N)n(-c4ccccc4)c(=O)c23)cn1 [Example 29, 2-Amino-4-((2S,4S)-2-(5-(2-ethoxypyrimidin-5-yl)-6-fluoro-4-oxo-3-phenyl-3,4-dihydroquinazolin-2-yl)-4-hydroxypyrrolidin-1-yl)-6-methylpyrimidine-5-carbonitrile] | 2700 nM | 6 nM
COc1cncc(-c2cccc3nc([C@@H]4CCCN4c4nc(N)nc(C)c4C#N)n(-c4ccccc4)c(=O)c23)c1 [Example 18, (S)-2-Amino-4-(2-(5-(5-methoxypyridin-3-yl)-4-oxo-3-phenyl-3,4-dihydroquinazolin-2-yl)pyrrolidin-1-yl)-6-methylpyrimidine-5-carbonitrile] | 420 nM | < 3 nM
Cn1cc(-c2c(F)ccc3nc([C@@H]4C[C@H](O)CN4c4ncnc(N)c4C#N)n(-c4ccccc4)c(=O)c23)cn1 [Example 8, 4-Amino-6-((2S,4S)-2-(6-fluoro-5-(1-methyl-1H-pyrazol-4-yl)-4-oxo-3-phenyl-3,4-dihydroquinazolin-2-yl)-4-hydroxypyrrolidin-1-yl) pyrimidine-5-carbonitrile] | 3200 nM | 6 nM
Cc1nc(N)nc(N2CCC[C@H]2c2nc3cccc(-c4cncnc4)c3c(=O)n2-c2ccccc2)c1C#N [Example 17, (S)-2-Amino-4-methyl-6-(2-(4-oxo-3-phenyl-5-(pyrimidin-5-yl)-3,4-dihydroquinazolin-2-yl)pyrrolidin-1-yl)pyrimidine-5-carbonitrile] | 5800 nM | < 3 nM
Cn1cnc(-c2cccc3nc([C@@H]4CCCN4c4ncnc(N)c4C#N)n(-c4ccccc4)c(=O)c23)c1 [Example 15, (S)-4-Amino-6-(2-(5-(1-methyl-1H-imidazol-4-yl)-4-oxo-3-phenyl-3,4-dihydroquinazolin-2-yl)pyrrolidin-1-yl)pyrimidine-5-carbonitrile] | > 10000 nM | 5400 nM
CO[C@H]1C[C@@H](c2nc3cccc(-c4cnn(C)c4)c3c(=O)n2-c2ccccc2)N(c2nc(N)nc3[nH]cnc23)C1 [Example 11, 2-((2S,4S)-1-(2-Amino-9H-purin-6-yl)-4-methoxypyrrolidin-2-yl)-5-(1-methyl-1H-pyrazol-4-yl)-3-phenylquinazolin-4(3H)-one] | > 10000 nM | 660 nM
COc1ccc(-c2cccc3nc([C@@H]4C[C@H](O)CN4c4nc(N)nc(C)c4C#N)n(-c4ccccc4)c(=O)c23)cn1 [Example 27, 2-Amino-4-((2S,4S)-4-hydroxy-2-(5-(6-methoxypyridin-3-yl)-4-oxo-3-phenyl-3,4-dihydroquinazolin-2-yl)pyrrolidin-1-yl)-6-methylpyrimidine-5-carbonitrile] | 1300 nM | 6 nM
CO[C@H]1C[C@@H](c2nc3cccc(-c4cnn(C)c4)c3c(=O)n2-c2ccccc2)N(c2nc(N)nc(C)c2C#N)C1 [Example 10, 2-Amino-4-((2S,4S)-4-methoxy-2-(5-(1-methyl-1H-pyrazol-4-yl)-4-oxo-3-phenyl-3,4-dihydroquinazolin-2-yl)pyrrolidin-1-yl)-6-methylpyrimidine-5-carbonitrile] | 3900 nM | 60 nM
Cc1nc(N)nc(N2C[C@@H](O)C[C@H]2c2nc3ccc(F)c(-c4cnn(C)c4)c3c(=O)n2-c2ccccc2)c1C#N [Example 1, 2-Amino-4-((2S,4S)-2-(6-fluoro-5-(1-methyl-1H-pyrazol-4-yl)-4-oxo-3-phenyl-3,4-dihydroquinazolin-2-yl)-4-hydroxypyrrolidin-1-yl)-6-methylpyrimidine-5-carbonitrile] | 2200 nM | 3 nM
